Data from patent US20170190671A1, “BIS(ARYL)CATECHOL DERIVATIVES AS HERBICIDES” (E I DU PONT DE NEMOURS AND COMPANY, priority 2014, published 2017).

Tests used:
Conditions in all cases: scale 0 to 100
wild oat (Avenafatua) = assay: Test D postemergence; format: in vivo, Avena fatua
Text: (§1) Seeds of plant species selected from bluegrass (annual bluegrass, Poa annua), blackgrass (Alopecurus myosuroides), canarygrass (Phalaris minor), chickweed (common chickweed, Stellaria media), cutleaf geranium (Geranium dissectum), galium (catchweed bedstraw, Galium aparine), downy bromegrass (Bromus tectorum), field poppy (Papaver rhoeas), field violet (Viola arvensis), green foxtail (Setaria viridis), deadnettle (henbit deadnettle, Lamium amplexicaule), Italian ryegrass (Lolium multiflorum), kochia (Kochia scoparia), lambsquarters (Chenopodium album), oilseed rape (Brassica napus), pigweed (Amaranthus retroflexus), chamomile (scentless chamomile, Matricaria inodora), Russian thistle (Salsola kali), speedwell (bird's-eye speedwell, Veronica persica), spring barley (Hordeum vulgare), spring wheat (Triticum aestivum), wild buckwheat (Polygonum convolvulus), wild mustard (Sinapis arvensis), wild oat (Avenafatua), wild radish (Raphanus raphanistrum), windgrass (Apera spica-venti), winter barley (Hordeum vulgare), and winter wheat (Triticum aestivum) were planted into a silt loam soil and treated preemergence with test chemicals formulated in a non-phytotoxic solvent mixture which included a surfactant.
(§2) At the same time, these species were planted in pots containing Redi-Earth® planting medium (Scotts Company, 14111 Scottslawn Road, Marysville, Ohio 43041) comprising spaghnum peat moss, vermiculite, wetting agent and starter nutrients and treated with postemergence applications of the test chemicals formulated in the same manner. Plants ranged in height from 2 to 18 cm (1- to 4-leaf stage). Treated plants and controls were maintained in a controlled growth environment for 14 to 21 days after which time all species were compared to controls and visually evaluated. Plant response ratings, summarized in Table D, are based on a scale of 0 to 100 where 0 is no effect and 100 is complete control. A dash (-) response means no test result.

[1] = test system: canarygrass (Phalaris minor); assay: Test D preemergence; format: in vivo
Text: as §1, §2

kochia (Kochia scoparia) = assay: Test E postemergence; format: in vivo
In short: (§3)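 Test chemicals, formulated in a non-phytotoxic solvent with surfactant, are applied to silt loam soil after sowing or sprayed over young plants (1–4 leaves) in potting medium. Plants are then kept in a greenhouse for 14 to 21 days and scored 0–100 for control.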

[2] = test system: horseweed (Conyza canadensis); assay: Test E postemergence; format: in vivo
In short: as §3

[3] = test system: barnyardgrass (Echinochloa crus-galli); assay: Test E postemergence; format: in vivo
In short: as §3

[4] = test system: waterhemp (common waterhemp, Amaranthus rudis); assay: Test E postemergence; format: in vivo
In short: as §3

[5] = test system: Italian ryegrass (Lolium multiflorum); assay: Test E postemergence; format: in vivo
In short: as §3

[6] = test system: fall panicum (Panicum dichotomiflorum); assay: Test E postemergence; format: in vivo
In short: as §3

[7] = test system: sandbur (southern sandbur, Cenchrus echinatus); assay: Test E postemergence; format: in vivo
In short: as §3

corn (Zea mays) = assay: Test E postemergence; format: in vivo
In short: as §3

[8] = test system: ragweed (common ragweed, Ambrosia elatior); assay: Test E postemergence; format: in vivo
In short: as §3

soybean (Glycine max) = assay: Test E postemergence; format: in vivo
In short: as §3

[9] = test system: arrowleaf sida (Sida rhombifolia); assay: Test E postemergence; format: in vivo
In short: as §3

[10] = test system: waterhemp_RES2 (ALS & HPPD resistant common waterhemp, Amaranthus rudis); assay: Test E postemergence; format: in vivo
In short: as §3

[11] = test system: palmer pigweed (Amaranthus palmeri); assay: Test E postemergence; format: in vivo
In short: as §3

## N#Cc1cccc(Oc2ncc(Cl)cn2)c1Oc1ncc(Cl)cn1 [Compound 3, 2,3-bis[(5-chloro-2-pyrimidinyl)oxy]benzonitrile]
Wild oat (Avenafatua); 16 g ai/ha
  Plant response rating, Oat, Wild: 15
Wild oat (Avenafatua); 31 g ai/ha
  Plant response rating, Oat, Wild: 15
Wild oat (Avenafatua); 62 g ai/ha
  Plant response rating, Oat, Wild: 15
Wild oat (Avenafatua); 125 g ai/ha
  Plant response rating, Oat, Wild: 20
[1]; 16 g ai/ha
  Plant response rating, Canarygrass: 0
[1]; 31 g ai/ha
  Plant response rating, Canarygrass: 5
[1]; 62 g ai/ha
  Plant response rating, Canarygrass: 20
[1]; 125 g ai/ha
  Plant response rating, Canarygrass: 80

## Fc1cnc(Oc2c(Br)cccc2Oc2ncc(Cl)cn2)nc1 [Compound 22]
Wild oat (Avenafatua); 16 g ai/ha
  Plant response rating, Oat, Wild: 10
Wild oat (Avenafatua); 31 g ai/ha
  Plant response rating, Oat, Wild: 25
Wild oat (Avenafatua); 62 g ai/ha
  Plant response rating, Oat, Wild: 35
Wild oat (Avenafatua); 125 g ai/ha
  Plant response rating, Oat, Wild: 45
[1]; 16 g ai/ha
  Plant response rating, Canarygrass: 10
[1]; 31 g ai/ha
  Plant response rating, Canarygrass: 25
[1]; 62 g ai/ha
  Plant response rating, Canarygrass: 35
[1]; 125 g ai/ha
  Plant response rating, Canarygrass: 55

## Fc1cnc(Oc2c(F)cccc2Oc2ncc(Cl)cn2)nc1 [Compound 23]
Wild oat (Avenafatua); 16 g ai/ha
  Plant response rating, Oat, Wild: 15
Wild oat (Avenafatua); 31 g ai/ha
  Plant response rating, Oat, Wild: 15
Wild oat (Avenafatua); 62 g ai/ha
  Plant response rating, Oat, Wild: 20
Wild oat (Avenafatua); 125 g ai/ha
  Plant response rating, Oat, Wild: 35
[1]; 16 g ai/ha
  Plant response rating, Canarygrass: 60
[1]; 31 g ai/ha
  Plant response rating, Canarygrass: 65
[1]; 62 g ai/ha
  Plant response rating, Canarygrass: 80
[1]; 125 g ai/ha
  Plant response rating, Canarygrass: 85

## FC(F)(F)c1cnc(Oc2c(Br)cccc2Oc2ncc(Cl)cn2)nc1 [Compound 24]
Wild oat (Avenafatua); 16 g ai/ha
  Plant response rating, Oat, Wild: 15
Wild oat (Avenafatua); 31 g ai/ha
  Plant response rating, Oat, Wild: 20
Wild oat (Avenafatua); 62 g ai/ha
  Plant response rating, Oat, Wild: 25
Wild oat (Avenafatua); 125 g ai/ha
  Plant response rating, Oat, Wild: 35
[1]; 16 g ai/ha
  Plant response rating, Canarygrass: 25
[1]; 31 g ai/ha
  Plant response rating, Canarygrass: 30
[1]; 62 g ai/ha
  Plant response rating, Canarygrass: 35
[1]; 125 g ai/ha
  Plant response rating, Canarygrass: 45

## N#Cc1cccc(Oc2ncc(Cl)cn2)c1Oc1ccc(Cl)cc1 [Compound 36]
Kochia (Kochia scoparia); 16 g ai/ha
  Plant response rating, Kochia: 90
Kochia (Kochia scoparia); 31 g ai/ha
  Plant response rating, Kochia: 95
Kochia (Kochia scoparia); 62 g ai/ha
  Plant response rating, Kochia: 100
Kochia (Kochia scoparia); 125 g ai/ha
  Plant response rating, Kochia: 95
[2]; 16 g ai/ha
  Plant response rating, Horseweed: 0
[2]; 31 g ai/ha
  Plant response rating, Horseweed: 0
[2]; 62 g ai/ha
  Plant response rating, Horseweed: 5
[2]; 125 g ai/ha
  Plant response rating, Horseweed: 10
[3]; 16 g ai/ha
  Plant response rating, Barnyardgrass: 20
[3]; 31 g ai/ha
  Plant response rating, Barnyardgrass: 25
[3]; 62 g ai/ha
  Plant response rating, Barnyardgrass: 30
[3]; 125 g ai/ha
  Plant response rating, Barnyardgrass: 50
[4]; 16 g ai/ha
  Plant response rating, Waterhemp: 95
[4]; 31 g ai/ha
  Plant response rating, Waterhemp: 90
[4]; 62 g ai/ha
  Plant response rating, Waterhemp: 95
[4]; 125 g ai/ha
  Plant response rating, Waterhemp: 95
[5]; 16 g ai/ha
  Plant response rating, Ryegrass, Italian: 10
[5]; 31 g ai/ha
  Plant response rating, Ryegrass, Italian: 15
[5]; 62 g ai/ha
  Plant response rating, Ryegrass, Italian: 10
[5]; 125 g ai/ha
  Plant response rating, Ryegrass, Italian: 30
[6]; 16 g ai/ha
  Plant response rating, Panicum, Fall: 20
[6]; 31 g ai/ha
  Plant response rating, Panicum, Fall: 25
[6]; 62 g ai/ha
  Plant response rating, Panicum, Fall: 15
[6]; 125 g ai/ha
  Plant response rating, Panicum, Fall: 25
[7]; 16 g ai/ha
  Plant response rating, Sandbur: 10
[7]; 31 g ai/ha
  Plant response rating, Sandbur: 20
[7]; 62 g ai/ha
  Plant response rating, Sandbur: 20
[7]; 125 g ai/ha
  Plant response rating, Sandbur: 25
Corn (Zea mays); 16 g ai/ha
  Plant response rating, Corn: 10
Corn (Zea mays); 31 g ai/ha
  Plant response rating, Corn: 20
Corn (Zea mays); 62 g ai/ha
  Plant response rating, Corn: 20
Corn (Zea mays); 125 g ai/ha
  Plant response rating, Corn: 25
[8]; 16 g ai/ha
  Plant response rating, Ragweed: 15
[8]; 31 g ai/ha
  Plant response rating, Ragweed: 25
[8]; 62 g ai/ha
  Plant response rating, Ragweed: 35
[8]; 125 g ai/ha
  Plant response rating, Ragweed: 50
Soybean (Glycine max); 16 g ai/ha
  Plant response rating, Soybean: 60
Soybean (Glycine max); 31 g ai/ha
  Plant response rating, Soybean: 50
Soybean (Glycine max); 62 g ai/ha
  Plant response rating, Soybean: 70
Soybean (Glycine max); 125 g ai/ha
  Plant response rating, Soybean: 50
[9]; 16 g ai/ha
  Plant response rating, Arrowleaf Sida: 70
[9]; 31 g ai/ha
  Plant response rating, Arrowleaf Sida: 70
[9]; 62 g ai/ha
  Plant response rating, Arrowleaf Sida: 80
[9]; 125 g ai/ha
  Plant response rating, Arrowleaf Sida: 85
[10]; 16 g ai/ha
  Plant response rating, Waterhemp_RES2: 60
[10]; 31 g ai/ha
  Plant response rating, Waterhemp_RES2: 90
[10]; 62 g ai/ha
  Plant response rating, Waterhemp_RES2: 80
[10]; 125 g ai/ha
  Plant response rating, Waterhemp_RES2: 90
[11]; 16 g ai/ha
  Plant response rating, Pigweed, Palmer: 75
[11]; 31 g ai/ha
  Plant response rating, Pigweed, Palmer: 85
[11]; 62 g ai/ha
  Plant response rating, Pigweed, Palmer: 85
[11]; 125 g ai/ha
  Plant response rating, Pigweed, Palmer: 85

## N#Cc1cccc(Oc2ncc(Cl)cn2)c1Oc1ncc(C(F)(F)F)cn1 [Compound 38, 3-[(5-chloro-2-pyrimidinyl)oxy]-2-[[5-(trifluoromethyl)-2-pyrimidinyl]oxy]-benzonitrile]
Kochia (Kochia scoparia); 16 g ai/ha
  Plant response rating, Kochia: 80
Kochia (Kochia scoparia); 31 g ai/ha
  Plant response rating, Kochia: 80
Kochia (Kochia scoparia); 62 g ai/ha
  Plant response rating, Kochia: 100
Kochia (Kochia scoparia); 125 g ai/ha
  Plant response rating, Kochia: 98
[2]; 16 g ai/ha
  Plant response rating, Horseweed: 5
[2]; 31 g ai/ha
  Plant response rating, Horseweed: 10
[2]; 62 g ai/ha
  Plant response rating, Horseweed: 20
[2]; 125 g ai/ha
  Plant response rating, Horseweed: 40
[3]; 16 g ai/ha
  Plant response rating, Barnyardgrass: 0
[3]; 31 g ai/ha
  Plant response rating, Barnyardgrass: 10
[3]; 62 g ai/ha
  Plant response rating, Barnyardgrass: 10
[3]; 125 g ai/ha
  Plant response rating, Barnyardgrass: 20
[4]; 16 g ai/ha
  Plant response rating, Waterhemp: 85
[4]; 31 g ai/ha
  Plant response rating, Waterhemp: 90
[4]; 62 g ai/ha
  Plant response rating, Waterhemp: 95
[4]; 125 g ai/ha
  Plant response rating, Waterhemp: 95
[5]; 16 g ai/ha
  Plant response rating, Ryegrass, Italian: 0
[5]; 31 g ai/ha
  Plant response rating, Ryegrass, Italian: 5
[5]; 62 g ai/ha
  Plant response rating, Ryegrass, Italian: 10
[5]; 125 g ai/ha
  Plant response rating, Ryegrass, Italian: 15
[6]; 16 g ai/ha
  Plant response rating, Panicum, Fall: 10
[6]; 31 g ai/ha
  Plant response rating, Panicum, Fall: 10
[6]; 62 g ai/ha
  Plant response rating, Panicum, Fall: 10
[7]; 16 g ai/ha
  Plant response rating, Sandbur: 0
[7]; 31 g ai/ha
  Plant response rating, Sandbur: 0
[7]; 62 g ai/ha
  Plant response rating, Sandbur: 10
[7]; 125 g ai/ha
  Plant response rating, Sandbur: 20
Corn (Zea mays); 16 g ai/ha
  Plant response rating, Corn: 0
Corn (Zea mays); 31 g ai/ha
  Plant response rating, Corn: 0
Corn (Zea mays); 62 g ai/ha
  Plant response rating, Corn: 15
Corn (Zea mays); 125 g ai/ha
  Plant response rating, Corn: 20
[8]; 16 g ai/ha
  Plant response rating, Ragweed: 20
[8]; 31 g ai/ha
  Plant response rating, Ragweed: 20
[8]; 62 g ai/ha
  Plant response rating, Ragweed: 40
[8]; 125 g ai/ha
  Plant response rating, Ragweed: 50
Soybean (Glycine max); 16 g ai/ha
  Plant response rating, Soybean: 70
Soybean (Glycine max); 31 g ai/ha
  Plant response rating, Soybean: 80
Soybean (Glycine max); 62 g ai/ha
  Plant response rating, Soybean: 95
Soybean (Glycine max); 125 g ai/ha
  Plant response rating, Soybean: 98
[9]; 16 g ai/ha
  Plant response rating, Arrowleaf Sida: 60
[9]; 31 g ai/ha
  Plant response rating, Arrowleaf Sida: 80
[9]; 62 g ai/ha
  Plant response rating, Arrowleaf Sida: 90
[9]; 125 g ai/ha
  Plant response rating, Arrowleaf Sida: 90
[10]; 16 g ai/ha
  Plant response rating, Waterhemp_RES2: 75
[10]; 31 g ai/ha
  Plant response rating, Waterhemp_RES2: 85
[10]; 62 g ai/ha
  Plant response rating, Waterhemp_RES2: 90
[10]; 125 g ai/ha
  Plant response rating, Waterhemp_RES2: 95
[11]; 16 g ai/ha
  Plant response rating, Pigweed, Palmer: 60
[11]; 31 g ai/ha
  Plant response rating, Pigweed, Palmer: 75
[11]; 62 g ai/ha
  Plant response rating, Pigweed, Palmer: 60
[11]; 125 g ai/ha
  Plant response rating, Pigweed, Palmer: 90
